Key:
mouse = experiment: Oral activity in vivo (audiogenic mouse test and/or MES test); conditions: oral administration
Experimental: The oral bioavailability was tested using the audiogenic mouse test (Audiogenic seizures, R. L. Collins; Chapter 14, pages: 347-372. In: Experimental Models of Epilepsy; By: Pupura, Penry, Tower, Woodbury, Waiter, Raven Press, New York, 1972. Standard Book Number: 0-911216-26-X) and/or the MES test.

OF1 mice = experiment: Murine maximal electroshock test (MES test); type: in vivo, mouse; conditions: Mus musculus, po, pre-treatment time 1 h
Experimental: Compounds of the invention were tested in OF1 mice using the maximal electroshock test (MES Test) described in detail by Schmutz et al., Naunyn-Schmiedeberg's Arch Pharmacol 1990, 342, 61-66. Briefly, generalized tonic-clonic convulsions of the hind extremities were induced by passing electrical current through temporal electrodes (50 Hz, 18 mA, 0.2 s). […] 30 mg/kg carbamazepine was used as a positive control; mice were classified as protected by a compound if the duration of the seizure lasted only 3 second or less. Five mice were used for each treatment condition and the percentage of protected mice was used as readout (i.e. a compound could give 0%, 20%, 40%, 60%, 80% or 100% protection). Compounds of the invention were given at a dose of 50 mg/kg, p.o., 1 hour prior to induction of convulsions (i.e. “pre-treatment time−1 h”).
ED50 values (ED: effective dose) were calculated using GraphPad Prism, v4.02.
15 s after shock administration, mouse blood was collected for determination of compounds' blood exposure.

| SMILES | In vivo orally active (mouse) | ED50 (OF1 mice) [mg/kg] |
| --- | --- | --- |
| CC(C)OC(C)c1cc2c(=O)n(NS(C)(=O)=O)c(=O)[nH]c2cc1C(F)(F)F (centres unmarked) [Compound A-4, N-[6-(1-Isopropoxy-ethyl)-2,4-dioxo-7-trifluoromethyl-1,4-dihydro-2H-quinazolin-3-yl]-methanesulfonamide] | Yes | 15.6 |
| CCC(O)c1cc2c(=O)n(NS(C)(=O)=O)c(=O)[nH]c2cc1C(F)(F)F (centres unmarked) [Compound A-3, N-[6-(1-Hydroxy-propyl)-2,4-dioxo-7-trifluoromethyl-1,4-dihydro-2H-quinazolin-3-yl]-methanesulfonamide] | Yes | 19.6 |
| CS(=O)(=O)Nn1c(=O)[nH]c2cc(C(F)(F)F)c(C3CCCO3)cc2c1=O (centres unmarked) [Compound B-2, N-[2,4-Dioxo-6-(tetrahydro-furan-2-yl)-7-trifluoromethyl-1,4-dihydro-2H-quinazolin-3-yl]-methanesulfonamide] | Yes | – |
| CC(F)c1cc2[nH]c(=O)n(NS(C)(=O)=O)c(=O)c2cc1-c1ccnn1C(C)C (centres unmarked) [Compound C-17, N-[7-(1-fluoro-ethyl)-6-(2-isopropyl-2H-pyrazol-3-yl)-2,4-dioxo-1,4-dihydro-2H-quinazolin-3-yl]-methanesulfonamide] | Yes | > 20 |
| CCc1cc2[nH]c(=O)n(NS(C)(=O)=O)c(=O)c2cc1-c1ccnn1C [Compound C-11, N-[7-Ethyl-6-(2-methyl-2H-pyrazol-3-yl)-2,4-dioxo-1,4-dihydro-2H-quinazolin-3-yl]-methanesulfonamide] | Yes | 6.1 |
| CC(C)n1nccc1-c1cc2c(=O)n(NS(C)(=O)=O)c(=O)[nH]c2cc1C(F)(F)F [Compound C-2, N-[6-(2-Isopropyl-2H-pyrazol-3-yl)-2,4-dioxo-7-trifluoromethyl-1,4-dihydro-2H-quinazolin-3-yl]-methanesulfonamide] | Yes | 17.7 |
| COCCC(O)c1cc2c(=O)n(NS(C)(=O)=O)c(=O)[nH]c2cc1C(F)(F)F (centres unmarked) [Compound A-18, N-[6-(1-Hydroxy-3-methoxy-propyl)-2,4-dioxo-7-trifluoromethyl-1,4-dihydro-2H-quinazolin-3-yl]-methanesulfonamide] | Yes | – |
| CS(=O)(=O)Nn1c(=O)[nH]c2cc(C(F)(F)F)c(-c3ccnn3O)cc2c1=O [Compound C-5, N-[6-(2-Hydroxy-2H-pyrazol-3-yl)-2,4-dioxo-7-trifluoromethyl-1,4-dihydro-2H-quinazolin-3-yl]-methanesulfonamide] | Yes | – |
| CCOC(CC)c1cc2c(=O)n(NS(C)(=O)=O)c(=O)[nH]c2cc1C(F)(F)F (centres unmarked) [Compound A-13, N-[6-(1-Ethoxy-propyl)-2,4-dioxo-7-trifluoromethyl-1,4-dihydro-2H-quinazolin-3-yl]-methanesulfonamide] | Yes | – |
| COCCn1nccc1-c1cc2c(=O)n(NS(C)(=O)=O)c(=O)[nH]c2cc1C(F)(F)F [Compound C-4, N-{6-[2-(2-Methoxy-ethyl)-2H-pyrazol-3-yl]-2,4-dioxo-7-trifluoromethyl-1,4-dihydro-2H-quinazolin-3-yl}-methanesulfonamide] | Yes | – |
| CC(OC1CCCC1)c1cc2c(=O)n(NS(C)(=O)=O)c(=O)[nH]c2cc1C(F)(F)F (centres unmarked) [Compound A-14, N-[6-(1-Cyclopentyloxy-ethyl)-2,4-dioxo-7-trifluoromethyl-1,4-dihydro-2H-quinazolin-3-yl]-methanesulfonamide] | yes | – |
| CC(C)n1nccc1-c1cc2c(=O)n(NS(C)(=O)=O)c(=O)[nH]c2cc1C(C)(F)F [Compound C-16, N-[7-(1,1-difluoro-ethyl)-6-(2-isopropyl-2H-pyrazol-3-yl)-2,4-dioxo-1,4-dihydro-2H-quinazolin-3-yl]-methanesulfonamide] | Yes | – |
